From ChEMBL document CHEMBL4483862, “Open-source discovery of chemical leads for next-generation chemoprotective antimalarials” (2018)

Tested on: Plasmodium berghei
Assay: Luciferase/luciferin-expressing antifolate-resistant parasites were used to infect a culture of HepG2 cells that were pre-incubated with compounds. Infected hepatocytes emit light due to the luciferase reaction. Assay results are presented as the percent inhibition of light emission compared to control. […]
Assay type: functional
Details: sporozoite; for IC90: read-out: LUCIFERASE INFECTION ASSAY - IC90
[1] = read-out: LUCIFERASE INFECTION ASSAY - IC50

Structure (SMILES) | IC50 [1] | IC90 | further results
O=C(CCCNC(=O)c1ccsc1)Nc1ccc(OC(F)(F)F)cc1 | > 10 µM | > 10 µM | 
Cc1c(C(=O)O)sc(S(=O)(=O)N2CCN(C(=O)C(C)(C)C)CC2)c1C(=O)O | > 10 µM | > 10 µM | 
O=S(=O)(c1ccc(C2=NNC(=NC3CC3)SC2)cc1)N1CCCCC1 | > 10 µM | > 10 µM | 
CS(=O)(=O)c1nc2ccccc2n1CC(=O)c1ccc2c(c1)CCO2 |  | > 10 µM | IC50 (PBLUC_HILL_SLOPE 0.389, PBLUC_R_SQUARED 0.133, read-out: LUCIFERASE INFECTION ASSAY - IC50): > 10 µM
COc1cc(OC)c(C(=O)/C=C/c2cccc(C#N)c2)cc1Cl |  | 4.08 µM | IC50 (HEPG2TOX_HILL_SLOPE 2.22, HEPG2TOX_R_SQUARED 0.565, PBLUC_HILL_SLOPE 10.9, PBLUC_R_SQUARED 0.489, read-out: LUCIFERASE INFECTION ASSAY - IC50): 3.33 µM
CCN(c1ccccc1)S(=O)(=O)c1ccc(Sc2ccc(C)cc2C)nc1 |  | > 10 µM | IC50 (HEPG2TOX_HILL_SLOPE 0.198, HEPG2TOX_R_SQUARED 0.716, PBLUC_HILL_SLOPE 11.9, PBLUC_R_SQUARED 0.0318, read-out: LUCIFERASE INFECTION ASSAY - IC50): 9.38 µM
Cc1c(C)c(C)c(S(=O)(=O)Nc2ccc(Oc3ccc(Cl)cc3)cc2)c(C)c1C |  | > 7.68 µM | IC50 (PBLUC_HILL_SLOPE 11, PBLUC_R_SQUARED 0.0118, read-out: LUCIFERASE INFECTION ASSAY - IC50): > 7.68 µM
O=C(Nc1ccc2c(c1)OCO2)c1csc(C(O)c2cccc(C(F)(F)F)c2)n1 (stereo unspecified) | > 10 µM | > 10 µM | 
NC(Cc1ccc(Cl)cc1)c1csc(Nc2ncccn2)n1 (stereo unspecified) |  | 5.31 µM | IC50 (HEPG2TOX_HILL_SLOPE 6.68, HEPG2TOX_R_SQUARED 0.347, PBLUC_HILL_SLOPE 658, PBLUC_R_SQUARED 0.395, read-out: LUCIFERASE INFECTION ASSAY - IC50): 5.29 µM
Cc1cccc(Nc2ccccc2C(=O)OCC(=O)N2CCNC2=O)c1C |  | 7.08 µM | IC50 (PBLUC_HILL_SLOPE 113, PBLUC_R_SQUARED 0.339, read-out: LUCIFERASE INFECTION ASSAY - IC50): 6.94 µM
Cc1sc2nc(-c3cccnc3)nc(N(C)Cc3cccnc3)c2c1C |  | 9.64 µM | IC50 (PBLUC_HILL_SLOPE 7.84, PBLUC_R_SQUARED 0.586, read-out: LUCIFERASE INFECTION ASSAY - IC50): 7.28 µM
c1ccc(-c2cc(NCc3cccs3)nc3ccccc23)cc1 | > 10 µM | > 10 µM | 
COC(=O)c1c(NC(=O)c2ccco2)c2cc(NC3CCN(C(C)C)CC3)cnc2n1CCC(C)C |  | > 6.66 µM | IC50 (PBLUC_HILL_SLOPE 4.28, PBLUC_R_SQUARED 0.61, read-out: LUCIFERASE INFECTION ASSAY - IC50): 4.64 µM
CCc1nc(COC(=O)c2c(C)nsc2NC)cs1 | 1.53 µM | 5.52 µM | 
COc1cccc(-c2cc(=O)n(-c3ccc(F)cc3)[nH]2)c1 | > 11.6 µM | > 11.6 µM | 
Cc1ccc(-c2nc(NC(=O)c3ccc4c(=O)[nH]c(=O)n(C)c4n3)sc2-c2ccc(C)cc2)cc1 |  | 4.58 µM | IC50 (FFLUC_HILL_SLOPE 5.14, FFLUC_R_SQUARED 0.303, PBLUC_HILL_SLOPE 8.87, PBLUC_R_SQUARED 0.194, read-out: LUCIFERASE INFECTION ASSAY - IC50): 3.57 µM
O=C(NCCO)c1cccc(-c2ccc3ncc(-c4cccc(O)c4)n3n2)c1 |  | 9.64 µM | IC50 (HEPG2TOX_HILL_SLOPE 14.1, HEPG2TOX_R_SQUARED 0.658, PBLUC_HILL_SLOPE 25.2, PBLUC_R_SQUARED 0.24, read-out: LUCIFERASE INFECTION ASSAY - IC50): 8.83 µM

Structure (SMILES) | IC50 [1] | IC90 | further results
CCOC(=O)c1cc(NC(=O)Nc2ccc(Cl)c(Cl)c2)ccc1Oc1cncc(Cl)c1 |  | 4.18 µM | IC50 (HEPG2TOX_HILL_SLOPE 3.45, HEPG2TOX_R_SQUARED 0.989, PBLUC_HILL_SLOPE 3.28, PBLUC_R_SQUARED 0.474, read-out: LUCIFERASE INFECTION ASSAY - IC50): 2.14 µM
COc1ccc(CNC(=O)N2CCc3nc(NCc4cccc(Oc5ccccc5)c4)ncc3C2)cc1 | > 6.66 µM | > 6.66 µM | 
CN1CCN(c2ccccc2/C=N\Nc2cc(Cl)ccc2Cl)CC1 |  | > 9.08 µM | IC50 (PBLUC_HILL_SLOPE 2.04, PBLUC_R_SQUARED 0.6, read-out: LUCIFERASE INFECTION ASSAY - IC50): 3.92 µM
CC1(C)C=Cc2cc(/C(N)=N/OC(=O)c3ccccc3)ccc2O1 |  | 0.211 µM | IC50 (FFLUC_HILL_SLOPE 1.86, FFLUC_R_SQUARED 0.604, PBLUC_HILL_SLOPE 0.872, PBLUC_R_SQUARED 0.782, read-out: LUCIFERASE INFECTION ASSAY - IC50): 0.0169 µM
Clc1ccc(Sc2ncnc3sccc23)cc1 | > 11.8 µM | > 11.8 µM | 
CCN(CC)C(=O)CN1CCN(C(=O)c2ccc(S(=O)(=O)N3CCOCC3)cc2)CC1 | > 10 µM | > 10 µM | 
CCCCCCCCc1nnc(NC(=O)c2cnc(C)cn2)s1 |  | 9.2 µM | IC50 (PBLUC_HILL_SLOPE 3.30, 10.9, PBLUC_R_SQUARED 0.837, 0.639, read-out: LUCIFERASE INFECTION ASSAY - IC50): 6.57 µM
O=C(/C(=N/Nc1ccc(OC(F)(F)F)cc1)C(=O)C(F)(F)F)c1cccs1 |  | > 8.04 µM | IC50 (PBLUC_HILL_SLOPE 12.2, PBLUC_R_SQUARED 0.21, read-out: LUCIFERASE INFECTION ASSAY - IC50): 7.58 µM
CCOC(=O)c1c(C)[nH]c(C(=O)Nc2cccc(C)n2)c1C |  | > 10 µM | IC50 (PBLUC_HILL_SLOPE 0.344, PBLUC_R_SQUARED 0.589, read-out: LUCIFERASE INFECTION ASSAY - IC50): 0.0971 µM
Cc1nc2n(C)c3ccccc3[n+]2c(C)c1C |  | > 10 µM | IC50 (HEPG2TOX_HILL_SLOPE 3.01, HEPG2TOX_R_SQUARED 0.767, PBLUC_HILL_SLOPE 4.79, PBLUC_R_SQUARED 0.113, read-out: LUCIFERASE INFECTION ASSAY - IC50): 6.7 µM
FC(F)(F)c1ccc(Nc2n[nH]c(=S)s2)cc1 |  | > 11.9 µM | IC50 (PBLUC_HILL_SLOPE 2.58, PBLUC_R_SQUARED 0.163, read-out: LUCIFERASE INFECTION ASSAY - IC50): 8.08 µM
CCCN1C(=O)c2[nH]nc(-c3ccccc3O)c2C1c1ccc(Cl)cc1 (stereo unspecified) |  | > 8.97 µM | IC50 (FFLUC_HILL_SLOPE 13.6, FFLUC_R_SQUARED 0.713, HEPG2TOX_HILL_SLOPE 5.14, HEPG2TOX_R_SQUARED 0.579, read-out: LUCIFERASE INFECTION ASSAY - IC50): > 8.97 µM
Cc1ccccc1-c1ccc(CN2CCC3(CC2)C(=O)N(C)C(=O)N3CC(C)C)cc1 |  | 3.99 µM | IC50 (HEPG2TOX_HILL_SLOPE 1.94, HEPG2TOX_R_SQUARED 0.943, PBLUC_HILL_SLOPE 7.56, PBLUC_R_SQUARED 0.512, read-out: LUCIFERASE INFECTION ASSAY - IC50): 2.99 µM
O=C(OCCSc1ccc([N+](=O)[O-])c2nonc12)c1ccc(F)cc1 |  | > 9.08 µM | IC50 (FFLUC_HILL_SLOPE 1.52, FFLUC_R_SQUARED 0.911, HEPG2TOX_HILL_SLOPE 8.69, HEPG2TOX_R_SQUARED 0.77, PBLUC_HILL_SLOPE 16.5, PBLUC_R_SQUARED 0.0304, read-out: LUCIFERASE INFECTION ASSAY - IC50): > 9.08 µM
CCOc1ccccc1/C=N/n1c(-c2ccc(CC)cc2)cs/c1=N\c1cccc(OC)c1 |  | 3.81 µM | IC50 (PBLUC_HILL_SLOPE 10.6, PBLUC_R_SQUARED 0.562, read-out: LUCIFERASE INFECTION ASSAY - IC50): 3.1 µM
CCN1CCC(Nc2cnc3c(c2)c(NC(=O)Cc2ccccc2)c(C(=O)OC)n3CC(C)C)CC1 | 5.59 µM | > 6.71 µM | 
